Experimental data as given in patent US10933053B2, “Treating infections with ceftolozane/tazobactam in subjects having impaired renal function” (MERCK SHARP & DOHME CORP., priority 2013, dated 2021).

Experiment: Phase I studies: impact of renal function on PK and safety of ceftolozane/tazobactam
Type: in vivo, human
Conditions: for median AUC0-∞ increase vs normal renal function / median Cmax increase vs normal renal function: moderate renal impairment; for median AUC0-∞ increase vs dose-normalized exposure in normal renal function / median Cmax increase vs dose-normalized exposure in normal renal function: severe renal impairment
Excerpt: Male and female subjects, aged 18 to 79 years, with varying degrees of renal function were enrolled in two, prospective, open-label, phase I studies of intravenous ceftolozane/tazobactam. A total of 36 subjects were enrolled into cohorts based on degree of renal function: normal (n=11), mild impairment (n=6), moderate impairment (n=7), severe impairment (n=6), and ESRD on HD (n=6). To ensure subjects with ESRD were receiving effective HD, a target adequacy of HD calculated from the pre- and post-blood urea nitrogen ratios (Kt/V) of at least 1.2 for a minimum of 3 months prior to enrollment was required.
All cohorts received ceftolozane/tazobactam as an intravenous infusion over 1 h. The normal, mild, and moderate renal impairment cohorts received a single dose of ceftolozane/tazobactam 1,000 mg/500 mg; the severe renal impairment cohort received a single dose of ceftolozane/tazobactam 500 mg/250 mg; the ESRD cohort received a dose of ceftolozane/tazobactam 500 mg/250 mg initiated at the end of HD on day 1 and another dose initiated 2 h before HD on day 4. Subjects with ESRD underwent HD for 3 to 4 h using a high-flux membrane as scheduled; average dialysis flow rate was 600 to 800 ml/min. Revaclear hemodialyzers (Gambro, Stockholm, Sweden) were used in 5 subjects (ultrafiltration coefficient 50 to 60 ml/h/mmHg, high flux membrane of 1.4 to 1.8 m^2) and a CT 190G hemodialyzers (Baxter Healthcare, McGaw Park, Ill.) was used in 1 subject (ultrafiltration coefficient 36 ml/h/mmHg, high flux membrane of 1.9 m^2). The average blood flow rate was 400 to 600 ml/min with the exception of one subject with rates between 264 and 400 ml/min.
Plasma concentrations of ceftolozane and tazobactam were measured prior to, during, and following administration of ceftolozane/tazobactam. Blood samples were collected 30 min prior to administration, at the end of administration and at 5, 15, and 30 min and 1, 2, 3, 5, 7, 9, 11, 15, 25, and 35 h after completion of ceftolozane/tazobactam administration in the normal, mild, and moderate renal impairment cohorts. Severe renal impairment and ESRD cohorts off HD had samples taken 30 min prior to administration and at 0.5, 1, 1.5, 2, 3, 6, 9, 12, 24, 36, and 48 h after the start of administration. On the day of and following HD, the subjects with ESRD had samples taken 30 min prior to administration and at 0.5, 1, 1.5, 2, 3, 4, 5, 6, 9, 12, 24, 36, and 44 h after the start of the administration. The entire dialysate was collected at each of the following intervals: 0 to 1, 1 to 2, 2 to 3, and 3 h to the end of dialysis. Urine for PK analysis was obtained in the normal, mild, and moderate cohorts at 0 to 2, 2 to 4, 4 to 8, 8 to 12, 12 to 24, and 24 to 36 h after the start of ceftolozane/tazobactam administration. In the ESRD and severe renal impairment cohorts, urine was collected during the confinement period pre-dose, 0 to 24 h, and 24 to 48 h after the start of the administration, unless the subject was anuric. A validated LC/MS/MS method was utilized to analyze all plasma, urine, and dialysate samples for ceftolozane and tazobactam (MicroConstants Inc., San Diego, Calif.) (4). The lower limit of quantification (LLOQ) in plasma was 0.25 μg/ml for ceftolozane and 0.1 μg/ml for tazobactam. The assay was linear between 0.25 and 150 μg/ml for ceftolozane and between 0.1 and 50 μg/ml for tazobactam. […] The LLOQ in dialysate for both ceftolozane and tazobactam was 1 ng/ml and the assay was linear between 1 and 500 ng/ml. […] The LLOQ for ceftolozane and tazobactam in urine was 5 and 10 μg/ml, respectively, and the assay was linear between 5 and 5,000 μg/ml for ceftolozane and between 10 and 10,000 μg/ml for tazobactam.

SMILES: C[C@]1(Cn2ccnn2)[C@H](C(=O)O)N2C(=O)C[C@H]2S1(=O)=O [Tazobactam, tazobactam]
- median AUC0-∞ increase vs normal renal function: 2.2 fold
- median Cmax increase vs normal renal function: 1.6 fold
- median AUC0-∞ increase vs dose-normalized exposure in normal renal function: 3.8 fold
- median Cmax increase vs dose-normalized exposure in normal renal function: 1.9 fold

SMILES: Cn1c(N)c(NC(=O)NCCN)c[n+]1CC1=C(C(=O)O)N2C(=O)[C@@H](NC(=O)/C(=N\OC(C)(C)C(=O)O)c3nsc(N)n3)[C@H]2SC1 [Ceftolozane, (6R,7R)-3-[(5-amino-4-{[(2-aminoethyl)carbamoyl]amino}-1-methyl-1H-pyrazol-2-ium-2-yl)methyl]-7-({(2Z)-2-(5-amino-1,2,4-thiadiazol-3-yl)-2-[(1-carboxy-1-methylethoxy)imino]acetyl}amino)-8-oxo-5-thia-1-azabicyclo[4.2.0]oct-2-ene-2-carboxylate]
- median AUC0-∞ increase vs normal renal function: 2.5 fold
- median Cmax increase vs normal renal function: 1.2 fold
- median AUC0-∞ increase vs dose-normalized exposure in normal renal function: 4.4 fold
- median Cmax increase vs dose-normalized exposure in normal renal function: 1.3 fold
